Source: US10611740B2, “Aryl dihydro-2H-benzo[b][1,4]oxazine sulfonamide and related compounds for use as agonists of RORγ and the treatment of disease” (Lycera Corporation, priority 2015, dated 2020)

What was measured:
[1] = molecular target: T1, Gal4-RORγ-LBD (Homo sapiens, UniProt P51449); assay: Gal4-RORγ Luciferase Reporter Assay in HEK-293T Cells; type: cell-based; conditions: HEK-293 cells
T1 construct: expressed in transfected cells; host or cells: HEK-293 cells (pcDNA3.1neo plasmid)
T1 sequence (P51449 269-508 limits assumed): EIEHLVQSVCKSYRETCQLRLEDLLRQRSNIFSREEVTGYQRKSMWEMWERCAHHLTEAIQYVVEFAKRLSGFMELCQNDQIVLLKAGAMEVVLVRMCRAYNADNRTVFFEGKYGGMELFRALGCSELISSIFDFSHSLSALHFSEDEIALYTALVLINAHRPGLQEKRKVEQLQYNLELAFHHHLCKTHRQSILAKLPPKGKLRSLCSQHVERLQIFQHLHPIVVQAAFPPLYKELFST
In short: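 HEK-293 cells were transiently co-transfected with Gal4-RORγ-LBD and pGL4.31 Gal4-luciferase, with ursolic acid added at 2 μM final. Compounds were incubated overnight at 37° C. in 0.2% DMSO and luminescence read with One-Glo. Max Response is the upper plateau of a 4-parameter logistic fit, with signal lacking ursolic acid or compound set to 100.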

[2] = molecular target: T2, RORγ-LBD (Homo sapiens, UniProt P51449); assay: RORγ-Ligand Binding Domain (LBD) TR-FRET Assay; type: biochemical;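 on TR-FRET Assay Max Response: 665/615 nm ratio relative to signal without ursolic acid or compound set at 100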
T2 construct: made in house; host or cells: SF9 cells (baculovirus)
T2 sequence (P51449 269-508 limits assumed): T1 sequence (P51449 269-508 limits assumed)
In short: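 Compounds, diluted in DMSO and then in assay buffer (1% DMSO final), were combined with His-tagged RORγ-LBD lysate at roughly 3 nM final and a 200 nM biotinylated SRC1 LXXLL peptide. Ursolic acid was included at 2 μM final. Coactivator recruitment was detected by TR-FRET.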

[3] = luciferase reporter, with 2 μM ursolic acid

Compound | EC50 [1, 3] [nM] | EC50 [2] [nM] | EC50 ([1]; 2 μM ursolic acid) [nM] | Gal4-RORγ Assay Max Response [1, 3] | TR-FRET Assay Max Response [2] | Gal4-RORγ Assay Max Response ([1]; 2 μM ursolic acid)
CN(C)c1cccc(-c2ccc3c(c2)N(S(=O)(=O)c2cccc(C(F)(F)F)c2)C[C@H](CCc2n[nH]c(=O)o2)O3)n1 [Compound 28B, (S)-5-(2-(6-(6-(dimethylamino)-pyridin-2-yl)-4-((3-(trifluoro-methyl)phenyl)sulfonyl)-3,4-dihydro-2H-benzo[b][1,4]oxazin-2-yl)ethyl)-1,3,4-oxadiazol-2(3H)-one] | < 500 | < 500 |  | ** (The symbol “**” indicates a value in the range of greater than 90 to 150) | **** (The symbol “****” indicates a value greater than 200) | 
Cc1ccccc1-c1ccc2c(c1)N(S(=O)(=O)c1cccc(C(F)(F)F)c1)C[C@H](CCC(=O)O)O2 [Compound 2P, (S)-3-(6-(o-tolyl)-4-((3-(trifluoromethyl)phenyl)-sulfonyl)-3,4-dihydro-2H-benzo[b][1,4]oxazin-2-yl)propanoic acid] | < 500 | < 500 |  | *** (The symbol “***” indicates a value in the range of greater than 150 to 200) | *** (The symbol “***” indicates a value in the range of greater than 150 to 200) | 
CC(C)c1ccc(-c2ccc3c(c2)N(S(=O)(=O)c2cccc(C(F)(F)F)c2)C[C@H](CCC(=O)O)O3)cc1 [Compound 2Z, (S)-3-(6-(4-isopropylphenyl)-4-((3-(trifluoromethyl)phenyl)-sulfonyl)-3,4-dihydro-2H-benzo[b][1,4]oxazin-2-yl)propanoic acid] | > 10000 | < 500 |  |  | ** (The symbol “**” indicates a value in the range of greater than 90 to 150) | 
NCC[C@H]1CN(S(=O)(=O)c2cccc(C(F)(F)F)c2)c2cc(-c3cc(F)ccc3F)ccc2O1 [Compound 27, (S)-2-(6-(2,5-difluorophenyl)-4-((3-(trifluoromethyl)phenyl)sulfonyl)-3,4-dihydro-2H-benzo[b][1,4]oxazin-2-yl)ethan-1-amine] | 500 to 5000 | < 500 |  | * (The symbol “*” indicates a value in the range of 25 to 90) | **** (The symbol “****” indicates a value greater than 200) | 
O=C(O)CC[C@H]1CN(S(=O)(=O)c2cccc(C(F)(F)F)c2)c2cc(-c3cc(C(F)(F)F)cc(F)c3F)ccc2O1 [Compound 4AS, (S)-3-(6-(2,3-difluoro-5-(trifluoromethyl)phenyl)-4-((3-(trifluoromethyl)phenyl)-sulfonyl)-3,4-dihydro-2H-benzo[b][1,4]oxazin-2-yl)propanoic acid] | < 500 | < 500 |  | ** (The symbol “**” indicates a value in the range of greater than 90 to 150) | **** (The symbol “****” indicates a value greater than 200) | 
COc1cc(S(=O)(=O)N2C[C@H](CCC(=O)O)Oc3ccc(-c4cc(F)cc(F)c4Cl)cc32)ccc1F [Compound 6K, (S)-3-(6-(2-chloro-3,5-difluorophenyl)-4-((4-fluoro-3-methoxyphenyl)sulfonyl)-3,4-dihydro-2H-benzo[b][1,4]oxazin-2-yl)propanoic acid] | < 500 | < 500 |  | ** (The symbol “**” indicates a value in the range of greater than 90 to 150) | *** (The symbol “***” indicates a value in the range of greater than 150 to 200) | 
Cc1noc(C)c1-c1ccc2c(c1)N(S(=O)(=O)c1cccc(C(F)(F)F)c1)C[C@H](CCC(=O)O)O2 [Compound 2BO, (S)-3-(6-(3,5-dimethylisoxazol-4-yl)-4-((3-(trifluoromethyl)-phenyl)sulfonyl)-3,4-dihydro-2H-benzo[b][1,4]oxazin-2-yl)propanoic acid] | > 10000 | > 10000 |  |  |  | 

Further lines, with some results ahead:

EC50 [1, 3] [nM] | EC50 [2] [nM] | EC50 ([1]; 2 μM ursolic acid) [nM] | Compound | Gal4-RORγ Assay Max Response [1, 3] | TR-FRET Assay Max Response [2] | Gal4-RORγ Assay Max Response ([1]; 2 μM ursolic acid)
 | < 500 | < 500 | CC(F)(F)C(=O)NC[C@H]1CN(S(=O)(=O)c2cccc(C(F)(F)F)c2)c2cc(-c3cccc(F)c3Cl)ccc2O1 [Compound 30CE, (S)-N-((6-(2-chloro-3-fluoro-phenyl)-4-((3-(trifluoromethyl)-phenyl)sulfonyl)-3,4-dihydro-2H-benzo[b][1,4]oxazin-2-yl)methyl)-2,2-difluoro-propanamide] |  | *** (The symbol “***” indicates a value in the range of greater than 150 to 200) | * (The symbol “*” indicates a value in the range of 25 to 90)
 | < 500 | 500 to 5000 | CC(F)C(=O)NC[C@H]1CN(S(=O)(=O)c2cccc(C(F)(F)F)c2)c2cc(-c3cccc(F)c3Cl)ccc2O1 (stereo partly drawn) [Compound 30CK, N-(((S)-6-(2-chloro-3-fluoro-phenyl)-4-((3-(trifluoromethyl)-phenyl)sulfonyl)-3,4-dihydro-2H-benzo[b][1,4]oxazin-2-yl)methyl)-2-fluoropropanamide] |  | ** (The symbol “**” indicates a value in the range of greater than 90 to 150) | * (The symbol “*” indicates a value in the range of 25 to 90)
< 500 | < 500 |  | CN(C)c1cccc(-c2ccc3c(c2)N(S(=O)(=O)c2cccc(C(F)(F)F)c2)C[C@H](CNC(=O)C(C)(C)O)O3)n1 [Compound 30H, (S)-N-((6-(6-(dimethylamino)-pyridin-2-yl)-4-((3-(trifluoromethyl)phenyl)sulfonyl)-3,4-dihydro-2H-benzo[b][1,4]oxazin-2-yl)methyl)-2-hydroxy-2-methylpropanamide] | * (The symbol “*” indicates a value in the range of 25 to 90) | **** (The symbol “****” indicates a value greater than 200) | 
 | < 500 | < 500 | CC(C)(C[C@H]1CN(S(=O)(=O)c2cccc(C(F)(F)F)c2)c2cc(-c3cc(F)cc(Cl)c3)ccc2O1)C(=O)O [Compound 32Y, (S)-3-(6-(3-chloro-5-fluoro-phenyl)-4-((3-(trifluoromethyl)-phenyl)sulfonyl)-3,4-dihydro-2H-benzo[b][1,4]oxazin-2-yl)-2,2-dimethylpropanoic acid] |  | *** (The symbol “***” indicates a value in the range of greater than 150 to 200) | ** (The symbol “**” indicates a value in the range of greater than 90 to 150)
< 500 | < 500 |  | CN(C)c1cccc(-c2ccc3c(c2)N(S(=O)(=O)c2cccc(C(F)(F)F)c2)C[C@H](CCNC(=O)C(C)(C)O)O3)n1 [Compound 30A, (S)-N-(2-(6-(6-(dimethylamino)-pyridin-2-yl)-4-((3-(trifluoro-methyl)phenyl)sulfonyl)-3,4-dihydro-2H-benzo[b][1,4]-oxazin-2-yl)ethyl)-2-hydroxy-2-methylpropanamide] | * (The symbol “*” indicates a value in the range of 25 to 90) | **** (The symbol “****” indicates a value greater than 200) | 
 | < 500 | < 500 | CC(C)(C[C@H]1CN(S(=O)(=O)c2cccc(C(F)(F)F)c2)c2cc(-c3cc(C(F)(F)F)ccc3Cl)ccc2O1)C(=O)O [Compound 32AD, (S)-3-(6-(2-chloro-5-(trifluoromethyl)phenyl)-4-((3-(trifluoromethyl)phenyl)sulfonyl)-3,4-dihydro-2H-benzo[b][1,4]oxazin-2-yl)-2,2-dimethylpropanoic acid] |  | *** (The symbol “***” indicates a value in the range of greater than 150 to 200) | * (The symbol “*” indicates a value in the range of 25 to 90)
< 500 | < 500 |  | O=C(NC[C@H]1CN(S(=O)(=O)c2cccc(C(F)(F)F)c2)c2cc(-c3cc(F)ccc3F)ccc2O1)c1cc[nH]n1 [Compound 30AD, (S)-N-((6-(2,5-difluorophenyl)-4-((3-(trifluoromethyl)phenyl)-sulfonyl)-3,4-dihydro-2H-benzo[b][1,4]oxazin-2-yl)methyl)-1H-pyrazole-3-carboxamide] | * (The symbol “*” indicates a value in the range of 25 to 90) | **** (The symbol “****” indicates a value greater than 200) | 
< 500 | < 500 |  | COc1cc(F)cc(-c2ccc3c(c2)N(S(=O)(=O)c2cccc(C(F)(F)F)c2)C[C@H](CNC(=O)[C@@](C)(O)C(F)(F)F)O3)c1F [Compound 30BF, (R)-N-(((S)-6-(2,5-difluoro-3-methoxyphenyl)-4-((3-(trifluoro-methyl)phenyl)sulfonyl)-3,4-dihydro-2H-benzo[b][1,4]-oxazin-2-yl)methyl)-3,3,3-trifluoro-2-hydroxy-2-methylpropanamide] | * (The symbol “*” indicates a value in the range of 25 to 90) | **** (The symbol “****” indicates a value greater than 200) | 
 | < 500 | < 500 | CC(C)(CC[C@H]1CN(S(=O)(=O)c2cccc(OC(F)F)c2)c2cc(-c3cc(F)ccc3F)ccc2O1)C(=O)O [Compound 32T, (S)-4-(4-((3-(difluoro-methoxy)phenyl)sulfonyl)-6-(2,5-difluorophenyl)-3,4-dihydro-2H-benzo[b][1,4]oxazin-2-yl)-2,2-dimethylbutanoic acid] |  | *** (The symbol “***” indicates a value in the range of greater than 150 to 200) | ** (The symbol “**” indicates a value in the range of greater than 90 to 150)
